Data taken from PMC11468294, “Peptide Amphiphiles as Biodegradable Adjuvants for Efficient Retroviral Gene Delivery” (Advanced Healthcare Materials, 2023).
Where a SMILES comes first, the peptide text is derived from it. The star is where a group is joined. Palmitoyl = CCCCCCCCCCCCCCCC(=O)*

Key:
[1] = system: GALV-RV transduction of Jurkat cells; experiment: γ-Retroviral infection assay of Jurkat cells (GFP+ cells by flow cytometry); type: cell-based; conditions: three days after transduction, increasing peptide concentration, performed once
Protocol: γ‐Retroviral Infection Assay of Jurkat cells: 50000 Jurkat cells were seeded in 180 µl supplemented RPMI. The cells were inoculated with 20 µl PNF solution 1:1 (v/v) mixed with virus (1:3.2 dilution) after an incubation time of 10 min. The effect of peptide fibrils on retroviral transduction of Jurkat cells was analyzed 3 days post infection by determining the percentage of GFP + cells by flow cytometry. All assays were conducted as described before.^[ [20] ^]

[2] = system: GALV-RV transduction of CD4+ T cells; experiment: γ-Retroviral transduction assay of CD4+ T cells; type: cell-based, Human; conditions: GALV-RV, 0.26, 1.3, 6.5 µM; GFP+ cells after 3 days; performed once
Protocol: γ‐Retroviral transduction Assay CD4+ T cells: Human CD4+ T cells were isolated from a Buffy coat using RosetteSep Human CD4+ Enrichment Cocktail ([…] Technologies) according to manufacturer's protocol. Isolated T cells were activated using Dynabeads Human T‐Activator CD3/CD28 (GibcoTM) according to manufacturer's protocol in presence of 10 ng mL^−1 IL‐2 (Miltenyi Biotec) for three days. After 3 days the magnetic Dynabeads were removed using a magnet and T cells were cultured in presence of 9 ng mL^−1 IL‐7 (Miltenyi Biotec) and 10 ng mL^−1 IL‐15 (Miltenyi Biotec). After 1 day 5 × 10^5 T cells were transduced with GALV‐γ‐RV in absence and presence of PA1, PA2, EF‐C (0.26, 1.3 and 6.5 µM) and Vectofusin−1 (10 µg mL^−1; Miltenyi Biotec), or RetroNectin (20 µg mL^−1; Takara Bio). The concentration of the transduction enhancers corresponds to the concentration on cells and in the case for RetroNectin it corresponds to the concentration that was used to precoat the 24‐well plate. The 24‐well plate was coated with RetroNectin and incubated overnight at 4°C. Wells were blocked with PBS containing 2% BSA for 30 min and washed twice with PBS. […] After 3 days GFP+ T cells were analyzed by flow cytometry. Viability was determined using LIVE/DEAD Fixable Aqua Dead Cell Stain Kit (ThermoFisher Scientific) according to manufacturer's protocol. […]

HeLa cells = experiment: Confocal microscopy degradation study with PA1-3 and HeLa cells; type: in vitro ADME; conditions: for degradation of aggregates > 10 µm^2 over 3 days: HeLa cells, 4 µg peptide (20 µg mL-1) added to 40,000 cells, 37°C, 30 min vs 3 d, Proteostat stain, confocal microscopy
Protocol: Confocal laser scanning microscopy and degradation study with PA1‐3 and HeLa cells: HeLa cells were seeded one day prior to conducting the assay (40000/well) in an 8‐well IBIDI slide. 4 µL of the preformed peptide fibrils (1 mg mL^−1) were diluted with 4 µL Proteostat (Enzo Life Science, 1 µL stock in 999 µL PBS) and incubated for 10 min and further diluted with medium to receive a final peptide concentration of 20 µg mL^−1. The nucleus of the HeLa cells was stained with Hoechst 33 342 (NucBlue, Thermo Fisher Scientific). The peptide solution was transferred to the HeLa cells and incubated for 30 min at 37°C before washing three times with PBS. The interaction of fibril clusters with cells was monitored after 30 min incubation time on a Stellaris 8 confocal laser scanning microscope (Leica) equipped with a 20x air objective and laser excitation wavelengths of 405 nm (Hoechst) and 561 nm (Proteostat). For the evaluation of aggregate degradation, the samples were further incubated at 37°C for 3 d and analyzed without any additional washing step. The evaluation of aggregate size and number was conducted by analyzing Proteostat stained aggregates via the 3D objects counter function of ImageJ 1.53f51 for 3 individual measurements (area 581.25 µm × 581.25 µm). […] The number of aggregates larger than 10 µm^2 were counted via the 3D objects counter function of ImageJ 1.53f51. The mean number and standard deviations were determined by averaging at least three technical triplicates.

CD4+ T cells = experiment: Confocal microscopy degradation study with CD4+ T cells; type: in vitro ADME, Human; conditions: 1 µg peptide (5 µg mL-1) added to 250,000 cells, 37°C, 30 min vs 3 d; Proteostat stain
Protocol: Confocal laser scanning microscopy and degradation study with PA1‐3 and CD4+ T cells: The degradation of the peptide assemblies on CD4+ T cells was determined by analyzing fluorescence microscopy images. To this end, 4 µL of the preassembled peptide fibrils EF‐C, PA1 and PA2 (1 mg mL^−1, 1 d in PBS) were mixed with 4 µL of Proteostat (Enzo Life Science, 1 µL stock in 99 µL PBS) and incubated for 15 min. 2 µL of the stained fibrils were added to 198 µL preactivated and nucleus stained (Hoechst 33 342) CD4+ T cells (200 µL, 0.25 × 10^6) resulting in a final 5 µg mL^−1concentration of the peptide. After incubation for 30 min at 37°C the cells were washed with 3x with PBS and incubated in medium (supplemented RPMI containing IL‐15 and 7). Microscopy was conducted on a Zeiss LSM 710 confocal microscope with 20x and 63x objective and laser excitation wavelengths of 405 nm (Hoechst) and 561 nm (Proteostat). The measurements were performed after 30 min and 3 d of incubation at 37°C without any washing step in between. Control experiments to analyze changes of fibril aggregation were conducted analogously without the presence of cells. The evaluation of aggregate size and number was conducted by analyzing Proteostat stained aggregates via the 3D objects counter function of ImageJ 1.53f51 for 5 individual measurements (area 708.5 µm × 708.5 µm) of three individually repeated experiments.

[3] = Zeta-potential measurement; type: physicochemical; conditions: fibrils 1 mg mL-1 in PBS, 60 µL diluted in 600 µL 1 mM KCl; triplicates
Protocol: Zeta‐potential: 60 µL of the peptides (1 mg mL^−1) were diluted in 600 µL, 1 mM KCl solution and placed in a disposable folded capillary cuvette. All zeta‐potential measurements (Zetasizer, Malvern Instruments) were conducted in triplicates for each sample.

[4] = ATR-FT-IR β-sheet content; type: physicochemical; conditions: ATR-IR of lyophilized fibril solutions (1 mg mL-1, PBS); peak integration at 1630 cm-1 in 2nd derivative of amide I region
Protocol: ATR‐FT‐IR: ATR‐IR spectra acquisition and the calculation of β−sheet content were conducted according to a previous report.^[ [20] ^] Briefly, FT‐IR spectra of solid samples were recorded after lyophilization of fibril solutions using a Bruker Tensor II spectrometer equipped with a diamond crystal as ATR element with a spectral resolution of 2 cm–1, each spectrum was an average of 64 scans. The data was processed with Origin software. β−sheet amount was determined by calculating the integral of the peak at 1630 cm^−1 (β‐sheet) relative to the integral between 1650–1700 cm^−1 (native structure) from the 2nd derivative of the FT‐IR spectra.

Molecule | transduction enhancement of Jurkat cells (GFP+ cells, in words) [1] | transduction efficacy in primary CD4+ T cells (in words) [2] | degradation of aggregates > 10 µm^2 over 3 days (HeLa cells) [%] | aggregate size (large aggregates) (HeLa cells; confocal aggregate size analysis with HeLa cells) [µm^2] | degradation of aggregates by CD4+ T cells (in words) (CD4+ T cells) | Zeta-Potential [3] | β-sheet content [4] [%]
CCCCCCCCCCCCCCCC(=O)N[C@@H](Cc1ccccc1)C(=O)N[C@@H](CCC(N)=O)C(=O)N[C@@H](Cc1ccccc1)C(=O)N[C@@H](CCCCN)C(=O)N[C@@H](Cc1ccccc1)C(=O)N[C@@H](CCCCN)C(=O)N[C@@H](CS)C(N)=O [PA2] (Palmitoyl-FQFKFKC-NH2) | strong transduction enhancement similar to EF‐C | in the range of commercially available gold‐standard enhancers RetroNectin and Vectofusin‐1 | 52 | > 50 | not degraded as efficiently | +19.2 ± 3.4 mV | 59
C16-VVVAAAKKK-NH2 [PA1] | strong transduction enhancement similar to EF‐C | in the range of commercially available gold‐standard enhancers RetroNectin and Vectofusin‐1 | 94 | – | almost all small aggregates of PA1 are degraded by CD4+ T cells | +22.2 ± 0.7 mV | 57
